Assay results taken from patent US9605013B2, “Derivatives of hemin with antibacterial and antiviral activity” (OBSCHESTVO S OGRANICHENNOI OTVETSTVENNOSTIYU …, priority 2011, dated 2017).

How the values were obtained:
Type in all cases: cell-based
[1] = system: Bacillus subtilis BKM B-501; assay: Antibacterial activity, serial dilutions in liquid MH medium; conditions: MH medium, 20 h, 37° C., 100% growth inhibition
Protocol: (§1) The antibacterial activity of the compounds was determined against strains of gram-positive bacteria such as Staphylococcus aureus 209P, Enterococcus faecalis BKM B-871, Micrococcus luteus BKM Ac-2230, Bacillus subtilis BKM B-501, and gram-negative bacteria such as Pseudomonas aeruginosa PAO1 and Escherichia coli KM MGU C-600. BKM strains were acquired from the All-Russia Collection of Microorganisms at the Institute for Biochemistry and Physiology of Microorganisms, Russian Academy of Sciences. Strain Staphylococcus aureus 209P was acquired from the Collection of Microorganisms at the Department of microbiology of the Faculty of Biology of Lomonosov Moscow State University, and Pseudomonas aeruginosa PAO1 was acquired from the Collection of Microorganisms at the Institute of Bioorganic Chemistry of the Russian Academy of Sciences.
(§2) The main parameters characterizing the antibacterial activity are the minimal inhibitory concentration (MIC) and minimal bactericidal concentration (MBC). […] MBC is the least concentration that causes the death of all cells.
(§3) MIC was quantified by inhibiting culture growth in a liquid medium with serial dilutions of compounds using a modified procedure [Amsterdam, D., 1966. “Susceptibility testing of antimicrobials in liquid media,” pp. 52-111. In Loman, V., ed. Antibiotics in laboratory medicine, 4th ed. Williams and Wilkins, Baltimore].
(§4) Bacteria were cultured and tested on an MH liquid medium (Mueller-Hinton medium: a dry extract of beef broth, 4 g/L; starch, 1.5 g/L; casein hydrolyzate, 17.5 g/L; Sigma-Fluka Catalog No. 70192) at 37° C., 100% humidity, and under stirring. Cultures (within 4 to 7 passages after thawing) in the exponential growth phase were used for tests.
(§5) All tested compounds absorb light at 595 nm, a wavelength used for evaluating bacterial culture growth. Therefore, a correction for absorption was applied in estimating the optical density of bacterial suspensions for each compound with account for its concentration in the well. Bacterial growth inhibition (GI) as percentage after 20 hours of incubating cells with compounds was derived from the optical density (A) measured in every well at a wavelength of 595 nm using the equation: GIi=[(Act−Ac0)−(Ait−Ai0)]×100/(Act−Ac0), (1) wherein the subscripts have the following meanings: i denotes the well number, c denotes a control well with bacteria whereto the tested compound is not inserted, 0 refers to the measurement taken immediately once the tested compound was inserted to the well, and t refers to the measurement taken 20 hours after the compound was inserted.
(§6) The protocol for the determination of experimental antibacterial activity of the tested compounds was as follows. A cryovial with the test strain culture in a medium with 7% DMSO stored in liquid nitrogen, was rapidly defrosted, and 1.5 mL of the fresh MH medium was inoculated with 100 μL of the cell suspension. Cells were grown for one day at 37° C. and stirred on an orbital shaker at 150 rpm. The morphologic features of the strain and the absence of contamination with foreign bacteria were verified by: (a) inoculation on an agarized (15 g/L agar) MH medium and observation of the shape and color of the grown colonies and (b) examination of characteristic morphologic features under a microscope (Mikmed-2, LOMO, Russia) equipped with a 40× objective lens. Further, the bacteria were cultured in 1 mL of the liquid MH medium at 37° C. under stirring. The cells were reseeded every day. Cell cultures were used in tests starting with 3rd reseeding and ending with 6th one.
(§7) For testing, 5 μL of a bacterial suspension in the stationary growth phase was transferred to 1 mL of a sterile MH medium and incubated until the exponential growth phase was attained (3 to 5 h, 37° C., stirring at 150 rpm). To estimate the microorganism concentration, the optical density (A) of the resulting bacterial culture was measured at a wavelength of 595 nm. […]

[2] = system: Micrococcus luteus BKM Ac-2230; assay: as above
Protocol: as §1, §2, §3, §4, §5, §6, §7

[3] = system: Staphylococcus aureus No. 3797 (MRSA); assay: Antibacterial specific activity, twofold dilutions, visual growth evaluation; conditions: St. aur No. 3797 MRSA; 36° C., 24 hours
Protocol: (§8) The specific activity of compounds also was determined against bacteria strains such as Staphylococcus aureus No. 25923 ATCC (American Type Culture Collection); Staphylococcus aureus No. 100 KC; Staphylococcus epidermidis No. 533; Enterococcus faecalis No. 559; Enterococcus faecium No. 569, Staphylococcus aureus No. 5 (MRSA), Staphylococcus aureus No. 3797 (MRSA). Staphylococcus aureus was cultured on the Trypticase Soy Agar (BBL) commercially available dry medium. Enterococcus faecalis was cultured on the Columbia Agar (BBL) commercially available dry medium. These media were sterilized by autoclaving at 121° C. for 15 min. Bacterial inoculum was constant and was 5×10^5 CFU/ml (10^5 CFU/0.2 ml). For water-soluble compounds, wells from 2nd through 8th were added with the solvent (water) in an amount of 15 μL per well, then the 1st well was added with 30 μL of the stock solution of the tested compound in […] with a concentration of […], and the concentration was adjusted to 0.007×10^3 M by serial twofold dilutions. A 10-μL portion was taken from every well, and 190 μL of the bacterial culture (10^5 CFU) was added per well. For DMSO-soluble compounds, wells from 2nd through 8th were added with the solvent (DMSO) in an amount of 10 μL per well, then the 1st well was added with 20 μL of the stock solution of the tested compound in […] with a concentration of […], and the concentration was adjusted to 0.039×10^3 M by serial twofold dilutions. A 2-μL portion was taken from each well, and 198 μL of the bacterial culture (10^5 CFU) was added per well.
(§9) The control comprised wells free of tested compounds (culture growth control). In addition, purity control of nutritional media and solvents was used. Plates were incubated in a thermostat at 36° C. for 24 hours.
(§10) Culture growth was evaluated visually by comparison of how microorganisms grew in the presence of tested compounds and in the absence of them. MIC was set equal to the last dilution of a tested agent which suppressed bacterial culture growth.

[4] = system: Staphylococcus aureus No. 5 (MRSA); assay: as above; conditions: St. aur No. 5 MRSA; 36° C., 24 hours
Protocol: as §8, §9, §10

[5] = system: Enterococcus faecalis No. 559; assay: as above; conditions: E. faecalis 559; 36° C., 24 hours
Protocol: as §8, §9, §10

Escherichia coli 4300 = assay: as above; conditions: E. coli 4300; 36° C., 24 hours
Protocol: [Worded in the source for another organism; this organism is reported under the same test.] as §8, §9, §10

[6] = system: Staphylococcus aureus No. 100 KC; assay: as above; conditions: S. aureus 100 KC; 36° C., 24 hours
Protocol: as §8, §9, §10

[7] = system: Staphylococcus aureus No. 25923 ATCC; assay: as above; conditions: S. aureus 25923; 36° C., 24 hours
Protocol: as §8, §9, §10

[8] = system: Staphylococcus epidermidis No. 533; assay: as above; conditions: S. epidermis 533; 36° C., 24 hours
Protocol: as §8, §9, §10

[9] = system: Vancomycin-resistant Enterococcus faecium 569; assay: as above; conditions: Vancomycin-resistant E. faecium 569; 36° C., 24 hours
Protocol: as §8, §9, §10

[10] = system: Herpes Simplex Virus type 2 strain G (No. VR-734 ATCC); assay: Antiviral activity, virus cytopathogenic action in Vero cells; design: key: 0: CPA (cytopathogenic action) is not detected; 1: up to 25% virus-infected monolayer; from 25% to 50%; 3: from 50% to 75%; 4: from 75% to 100%; conditions: 48 hours
Protocol: (§11) […] used in the study were used Herpes Simplex Virus type 1 (the Collection of Microorganisms at the Scientific Research Institute of Virology, strain EC), Herpes Simplex Virus type 2 strain G (No. VR-734 ATCC), and human cytomegalovirus strain AD169 (No. VR-538 ATCC). Herpes Simplex viruses type 1 and type 2 were cultured in Vero cells. The cells were incubated in MEM Eagle growth medium (MEM, BioloT, St-Petersburg, 1.3.3) supplemented with 10% fetal bovine serum (BioloT, St-Petersburg, 1.3.12) in Sanyo MCO-15AC gas-flow thermostat (37° C., 5% CO2) (Tokyo, Japan). A seed dose was 2×10^5 cells/ml in the starting inoculum or 2×10^4 cells/well. Herpes Simplex viruses were cultured under the same conditions in the MEM medium without serum (maintenance medium). Starting viral titers were 10^7 TCID50/ml.
(§12) For DMSO-soluble preparations, stock solutions were prepared in a concentration of 10 mM in DMSO. For water-soluble preparations, a stock solution prepared had the same concentration in the MEM medium (Minimal Essential Medium) for cell cultures. To control cytotoxicity (see below), the stock solution was diluted in the medium to a concentration of 100 μM and ten-fold serial dilutions of the preparations were made in the MEM medium (for DMSO-soluble compounds—in the MEM medium comprising 3% DMSO). The following concentrations of the preparations were used in the study of […]: if toxicity was not found, the concentrations of 100 μM preparations were 100, 10 and 1 μM; if toxicity was detected, the concentrations of 100 μM preparations were 10, 1, and 0.1 μM. Acyclovir (10 μg/ml) was used for Herpes Simplex viruses of both types as a reference preparation to control the viral model validity.
(§13) To study antiviral activity, plate wells with a cell monolayer were added with the preparations in an amount of 0.1 ml/well. To compensate a reduction in the concentration of the preparations, which takes place in the following addition of viruses, twofold concentrations of compounds (i.e. 200, 20 and 2 or 20, 2 and 0.2 μM for […] concentrations of 100 μM preparations, respectively) were used, incubated for an hour and then were infected with the examined 0.1 ml/well viruses in doses 1, 10 and 100 TCID50 (50% tissue infectious dose).
(§14) The virus-specific cytogenic action was manifested in an increase in the size of cells, their rounding, and detachment from a substrate. These morphological characteristics served as their marked difference from the cells subjected to a toxic action of high concentrations of the examined preparations. The latter acquired spindle-like shape, lost contacts with neighboring cells of the monolayer, and their boundaries became more distinct.
(§15) Intensity of the virus-specific changes in the cells were semi-quantified using a 4-score system: 0—CPA (cytopathogenic action) is not detected; 1—up to 25% virus-infected monolayer; 2—from 25% to 50%; 3—from 50% to 75%; and 4—from 75% to 100%. The antiviral activity of a compound was evaluated according to their ability to reduce the manifestation of cytopathogenic action in the plate wells compared to the control values. Differences with the control values by 1 score and more were considered to be significant.

[11] = system: Herpes Simplex Virus type 1 strain EC; assay: as above; design: key: 0: CPA (cytopathogenic action) is not detected; 1: up to 25% virus-infected monolayer; from 25% to 50%; 3: from 50% to 75%; 4: from 75% to 100%; conditions: 48 hours
Protocol: as §11, §12, §13, §14, §15

| Molecule | MIC [3] | MIC [4] | MIC [5] | MIC (Escherichia coli 4300) | MIC [6] | MIC [7] | MIC [8] | MIC [9] | other results |
| --- | --- | --- | --- | --- | --- | --- | --- | --- | --- |
| 6,7-bis-(Methyl Ester N^α—(N^G-Nitro)Arginyl)-Protohemin (IX) [III] | 25 µM | 25 µM |  |  |  |  |  |  | MIC [1]: 12.5 µM; MIC ([2]; MH medium, 20 h, 37° C., 100% growth inhibition): 1.6 µM; MBC ([2]; no colonies on agarized MH medium): 6.3 µM |
| 6,7-bis-[(Amide N^α-L-Arginyl)-L-Seryl]-Protohemin (IX) [XXIII] | >50.0 µM | >50.0 µM | >50.0 µM | >50.0 µM | >50.0 µM | >50.0 µM | >50.0 µM | >50.0 µM |  |
| 6,7-bis-[(Amide N^α-L-Seryl)-L-Arginyl]-Protohemin (IX) [XX] | 1.3 µM | 3.12 µM | 1.56 µM | >50.0 µM | 0.65 µM | 1.3 µM | 1.56 µM | 6.25 µM |  |
| 6,7-bis-[(Diamide N^α-L-Seryl)-L-glutamyl]-Protohemin (IX) [XII] |  |  |  |  |  |  |  |  | manifestation of the virus CPA ([10]; HSV-2, virus dose 1, concentration 0.1 μM): 0.5 scores; manifestation of the virus CPA ([10]; HSV-2, virus dose 1, concentration 1 μM): 0.5 scores; manifestation of the virus CPA ([10]; HSV-2, virus dose 1, concentration 10 μM): 0^1; manifestation of the virus CPA ([10]; HSV-2, virus dose 10, concentration 0.1 μM): 2 (from 25% to 50%); manifestation of the virus CPA ([10]; HSV-2, virus dose 10, concentration 1 μM): 1.5 scores; manifestation of the virus CPA ([10]; HSV-2, virus dose 10, concentration 10 μM): 1^1 (up to 25% virus-infected monolayer); manifestation of the virus CPA ([10]; HSV-2, virus dose 100, concentration 0.1 μM): 3 (from 50% to 75%); manifestation of the virus CPA ([10]; HSV-2, virus dose 100, concentration 1 μM): 3 (from 50% to 75%); manifestation of the virus CPA ([10]; HSV-2, virus dose 100, concentration 10 μM): 3 (from 50% to 75%) |
| 6,7-bis-[(Methyl Ester N^α-L-Arginyl)-L-Seryl]-Protohemin (IX) [XXI] | 1.56 µM | 0.65 µM | 1.56 µM | >50.0 µM | 0.65 µM | 0.39 µM | 0.78 µM | 6.25 µM |  |
| Nc1nc2c(ncn2COCCO)c(=O)[nH]1 [Acyclovir, reference compound] |  |  |  |  |  |  |  |  | manifestation of the virus CPA ([11]; HSV-1, virus dose 1, 10 μg/ml): 0^1; manifestation of the virus CPA ([11]; HSV-1, virus dose 10, 10 μg/ml): 0^1; manifestation of the virus CPA ([11]; HSV-1, virus dose 100, 10 μg/ml): 0^1; manifestation of the virus CPA ([10]; HSV-2, virus dose 1, 10 μg/ml): 0^1; manifestation of the virus CPA ([10]; HSV-2, virus dose 10, 10 μg/ml): 0^1; manifestation of the virus CPA ([10]; HSV-2, virus dose 100, 10 μg/ml): 0^1 |
